This passage reports Ki results from patent publication US20230203041A1, “ANTAGONISTS OF THE ADENOSINE A2A RECEPTOR” (AdoRx Therapeutics Limited, priority 2020, published 2023).

The target of assay [1] is T1, human Adenosine A3 receptor (Homo sapiens, UniProt P0DMS8).
T1 sequence (P0DMS8 1-318): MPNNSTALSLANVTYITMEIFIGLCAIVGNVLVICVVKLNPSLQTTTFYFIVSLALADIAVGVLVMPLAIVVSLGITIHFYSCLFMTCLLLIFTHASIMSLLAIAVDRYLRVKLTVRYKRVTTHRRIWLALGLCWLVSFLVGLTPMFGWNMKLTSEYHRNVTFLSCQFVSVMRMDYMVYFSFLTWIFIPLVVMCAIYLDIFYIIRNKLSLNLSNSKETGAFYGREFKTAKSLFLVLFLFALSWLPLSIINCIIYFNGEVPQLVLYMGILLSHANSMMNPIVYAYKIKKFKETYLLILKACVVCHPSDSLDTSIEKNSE
As to the kind of experiment: Adenosine receptor TR-FRET binding assay (CA200645 displacement), A3. In general terms: Time-resolved FRET reads energy transfer from a long-lived donor to a nearby acceptor.

Assay [2] has as its target T2, human Adenosine A2a receptor (Homo sapiens, UniProt P29274).
T2 construct: expressed in transfected cells; host or cells: CHO cell membranes
Briefly: Adenosine receptor TR-FRET binding assay (CA200645 displacement), A2a. Particulars: 100 nM CA200645, CHO cell membranes, 2 hours at room temperature.
Procedure: (§1) All FRET binding experiments were conducted at room temperature in white 384-well plates, in assay binding buffer containing 1×LabMed (Cisbio, France), 100 μg/mL saponin, 1% DMSO and 0.02% pluronic acid. Binding of the fluorescently labelled Adenosine receptor antagonist XAC (CA200645, FRET acceptor) to terbium-labelled A1, A2a, A2b and A3 adenosine receptors (FRET donors) was detected by time-resolved FRET due to the close proximity of the donor and acceptor in a binding event. To investigate the ability of unlabelled test compounds to bind to Adenosine A1, A2a, A2b and A3 receptors, dose response curves were constructed that determined the ability of a range of concentrations to inhibit the binding of 30 nM CA200645 to the A2b receptor and 100 nM CA200645 to the A1, A2a, and A3 receptor.
(§2) Serial dilution (1:3 dilutions) of test compounds in neat DMSO and transfer of a 400 nL sample of test compound into the assay plate was carried out using the Mosquito (TTP Labtech, UK). The compound samples were incubated for 2 hours at room temperature with a fixed concentration of CA200645 defined for each receptor (see above) and CHO cell membranes containing the human Adenosine A1 (0.5 μg/well), A2a (0.3 μg/well), A2b (1 μg/well) or A3 (1 μg/well) receptor in 40 μL of assay buffer. Total and non-specific binding of CA200645 was determined in the absence and presence of 10 μM XAC, respectively. Following 2 hours incubation, the level of CA200645 binding was detected on a Pherastar FSX (BMG Labtech, Germany) using standard TR-FRET settings. The terbium donor was excited with three laser flashes at a wavelength of 337 nm, and donor and acceptor emission was detected at 620 nm and 665 nm wavelengths, respectively. FRET ratios were obtained by multiplying the acceptor/donor ratio value by 10,000. Specific binding was determined by subtracting the non-specific binding FRET ratio from the total binding FRET ratio. Compound IC50 curves were analysed using GraphPad Prism 7.0 (GraphPad, USA) and Ki affinity values were determined from the obtained IC50 values using the method of Cheng and Prusoff.

Assay [3] concerns the target T3, human Adenosine A2b receptor (Homo sapiens, UniProt P29275).
T3 construct: expressed in transfected cells; host or cells: CHO cell membranes
T3 sequence (P29275 1-332): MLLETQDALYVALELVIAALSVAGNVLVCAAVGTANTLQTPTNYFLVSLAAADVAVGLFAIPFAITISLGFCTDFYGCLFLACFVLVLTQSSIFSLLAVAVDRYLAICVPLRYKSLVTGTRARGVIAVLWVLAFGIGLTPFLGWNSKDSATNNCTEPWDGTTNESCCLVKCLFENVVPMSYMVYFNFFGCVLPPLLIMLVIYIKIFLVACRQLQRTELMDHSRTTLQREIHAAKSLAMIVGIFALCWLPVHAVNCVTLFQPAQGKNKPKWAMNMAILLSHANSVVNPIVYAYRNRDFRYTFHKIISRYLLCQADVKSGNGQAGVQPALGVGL
As to the kind of experiment: Adenosine receptor TR-FRET binding assay (CA200645 displacement), A2b. Particulars: 30 nM CA200645, CHO cell membranes, 2 hours at room temperature.
Procedure: as §1, §2

The target of assay [4] is T4, human Adenosine A1 receptor (Homo sapiens, UniProt P30542).
T4 sequence (P30542 1-326): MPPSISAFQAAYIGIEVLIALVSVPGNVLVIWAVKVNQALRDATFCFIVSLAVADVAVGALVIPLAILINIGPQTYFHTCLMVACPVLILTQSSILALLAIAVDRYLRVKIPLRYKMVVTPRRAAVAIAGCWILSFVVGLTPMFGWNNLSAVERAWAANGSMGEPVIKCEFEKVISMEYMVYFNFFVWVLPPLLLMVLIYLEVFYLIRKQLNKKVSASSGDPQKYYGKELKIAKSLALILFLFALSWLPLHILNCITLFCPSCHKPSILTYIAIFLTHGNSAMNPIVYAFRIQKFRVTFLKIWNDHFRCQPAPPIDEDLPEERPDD
Briefly: Adenosine receptor TR-FRET binding assay (CA200645 displacement), A1.

Structures can show the parent of a compound that is named as a salt. Bounds are passed on as bounds.

T2 sequence (P29274 whole entry): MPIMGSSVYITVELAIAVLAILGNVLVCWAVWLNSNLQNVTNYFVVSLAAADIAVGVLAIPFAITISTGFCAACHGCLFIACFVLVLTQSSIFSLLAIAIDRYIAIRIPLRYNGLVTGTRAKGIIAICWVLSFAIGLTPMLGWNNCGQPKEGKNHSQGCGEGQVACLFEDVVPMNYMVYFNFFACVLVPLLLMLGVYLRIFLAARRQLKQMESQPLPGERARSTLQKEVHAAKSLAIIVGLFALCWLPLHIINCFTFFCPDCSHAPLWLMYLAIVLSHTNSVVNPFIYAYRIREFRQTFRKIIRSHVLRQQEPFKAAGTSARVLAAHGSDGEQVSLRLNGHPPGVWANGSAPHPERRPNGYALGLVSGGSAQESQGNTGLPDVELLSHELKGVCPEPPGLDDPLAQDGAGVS

Broadly, the Ki is a measure of affinity in units of concentration, obtained from inhibition or displacement. A low value points to tighter binding. Turning to `N#Cc1c(-c2ncco2)nn2ccc(NCc3ccccc3)nc12` [Example 57, 5-(Benzylamino)-2-oxazol-2-yl-pyrazolo[1,5-a]pyrimidine-3-carbonitrile], the Ki in assay [1] came out at 1870 nM; in assay [2], 24.7 nM; in assay [3], 1490 nM; in assay [4], 236 nM.
In the same order, the values of `Cc1cccnc1CN1CCN(c2ccn3nc(-c4cccc(F)c4)c(C#N)c3n2)CC1` [Example 60, 2-(3-Fluorophenyl)-5-[4-[(3-methyl-2-pyridyl)methyl]piperazin-1-yl]pyrazolo[1,5-a]pyrimidine-3-carbonitrile] are 1000 nM, 33.9 nM, 4600 nM and 27 nM.
In the case of `c1coc(-c2cc3nc(NCc4nccs4)ccn3n2)c1` [Example 74, 2-(2-Furyl)-N-(thiazol-2-ylmethyl)pyrazolo[1,5-a]pyrimidin-5-amine], the Ki was 160 nM in assay [1], 587 nM in assay [2], 6240 nM in assay [3] and 649 nM in assay [4].
The corresponding values for `OCc1c(-c2ccco2)nn2ccc(NCc3ccccc3)nc12` [Example 75, [5-(Benzylamino)-2-(2-furyl)pyrazolo[1,5-a]pyrimidin-3-yl]methanol] are 1740 nM, 153 nM, 1460 nM and 1140 nM.
In the same order, the values of `Nc1ccn2nc(-c3ccco3)c(-c3ccncc3)c2n1` [Example 79, 2-(2-Furyl)-3-(4-pyridyl)pyrazolo[1,5-a]pyrimidin-5-amine] are 2080 nM, 146 nM, 34 nM and 14 nM.
As for `N#Cc1c(-c2ccco2)nn2ccc(NC[C@H]3CCCN3)nc12` [Example 80, 2-(2-furyl)-5-[[(2R)-pyrrolidin-2-yl]methylamino]pyrazolo[1,5-a]pyrimidine-3-carbonitrile hydrochloride], the Ki in assay [1] is over 1000 nM; in assay [2], 155 nM; in assay [3], 4460 nM; in assay [4] it was 988 nM.
In the same order, the values of `Cc1cc(-c2c(-c3ccc(F)cc3)nn3ccc(N)nc23)cc(Cl)n1` [Example 88, 3-(2-Chloro-6-methyl-4-pyridyl)-2-(4-fluorophenyl)pyrazolo[1,5-a]pyrimidin-5-amine] are 536 nM, 35.7 nM, 63 nM and 29 nM.
In the case of `Cc1cc(-c2c(-c3cccc(C#N)c3)nn3ccc(C(=N)NC(C)(C)C)nc23)cc(Cl)n1` [Example 90, N-tert-Butyl-3-(2-chloro-6-methyl-4-pyridyl)-2-(3-cyanophenyl)pyrazolo [1,5-a]pyrimidine-5-carboxamidine], the Ki was over 1000 nM in assay [1], 12.3 nM in assay [2], 80 nM in assay [3] and 1840 nM in assay [4].
Turning to `Cc1cc(-c2c(-c3cccc(C#N)c3)nn3ccc(C(=O)NCC4CNC(=O)CO4)nc23)cc(C)n1` (stereo not drawn) [Example 92.5], the Ki is over 1000 nM in assay [1], 9.2 nM in assay [2], 17 nM in assay [3] and 438 nM in assay [4].
The corresponding values for `Cc1cc(-c2c(-c3cccc(C#N)c3)nn3ccc(C(=O)NC(C)C4(O)COC4)nc23)cc(C)n1` (stereo not drawn) [Example 92.6] are over 1000 nM, 0.7 nM, 22 nM and 167 nM.
In the same order, the values of `Cc1cc(-c2c(-c3cccc(C#N)c3)nn3ccc(C(=O)N4CCC5(CC4)NC(=O)NC5=O)nc23)cc(C)n1` [Example 92.7] are over 1000 nM, 27.6 nM, 3 nM and 158 nM.
As to `Cc1cc(-c2c(-c3cccc(C#N)c3)nn3ccc(C(=O)N[C@H]4COC[C@H]4O)nc23)cc(C)n1` [Example 92.8], the Ki was over 1000 nM in assay [1], 0.6 nM in assay [2], 14 nM in assay [3] and 70 nM in assay [4].
The corresponding values for `Cc1cc(-c2c(-c3cccc(C#N)c3)nn3ccc(C(=O)NC[C@H]4CCC(=O)N4)nc23)cc(C)n1` [Example 92.9] are over 1000 nM, 1 nM, 26 nM and 150 nM.
The corresponding values for `Cc1cc(-c2c(-c3cccc(C#N)c3)nn3ccc(C(=O)NCC4CCCNC4=O)nc23)cc(C)n1` (stereo not drawn) [Example 92.15] are 599 nM, 0.3 nM, 19 nM and 150 nM.
In the same order, the values of `Cc1cc(-c2c(-c3cccc(C#N)c3)nn3ccc(C(=O)NCC4(C)CCC(=O)N4)nc23)cc(C)n1` (stereo not drawn) [Example 92.16] are over 1000 nM, 0.7 nM, 59 nM and 232 nM.
In the case of `Cc1cc(-c2c(-c3cccc(C#N)c3)nn3ccc(C(=O)NCC4(C)NC(=O)NC4=O)nc23)cc(C)n1` (stereo not drawn) [Example 92.17], the Ki is over 1000 nM in assay [1], 1.1 nM in assay [2], 28 nM in assay [3] and 246 nM in assay [4].
In the same order, the values of `Cc1cc(-c2c(-c3cccc(C#N)c3)nn3ccc(C(=O)NCC4(C)CCC(=O)NC4)nc23)cc(C)n1` (stereo not drawn) [Example 92.18] are over 1000 nM, 0.7 nM, 51 nM and 28 nM.
In the same order, the values of `Cc1cc(-c2c(-c3cccc(C#N)c3)nn3ccc(C(=O)NCC4CCC(=O)NC4)nc23)cc(C)n1` (stereo not drawn) [Example 92.19] are over 1000 nM, 19.2 nM, 115 nM and 179 nM.
In the same order, the values of `Cc1cc(-c2c(-c3cccc(C#N)c3)nn3ccc(C(=O)N[C@H]4C[C@](C)(O)C4)nc23)cc(C)n1` [Example 92.20] are over 1000 nM, 1.2 nM, 37 nM and 301 nM.
Consider `Cc1cc(-c2c(-c3cccc(C#N)c3)nn3ccc(C(=O)N[C@H]4CC[C@@](C)(O)CC4)nc23)cc(C)n1` [Example 92.23], for which the inhibitory constant (Ki) in assay [1] was over 1000 nM; in assay [2], 3.4 nM; in assay [3], 35 nM; in assay [4], 1120 nM.
The corresponding values for `Cc1cc(-c2c(-c3cccc(C#N)c3)nn3ccc(C(=O)NC4CNC(=O)C4)nc23)cc(C)n1` (stereo not drawn) [Example 92.25] are over 1000 nM, 5.4 nM, 69 nM and 634 nM.
The corresponding values for `Cc1cc(-c2c(-c3cccc(C#N)c3)nn3ccc(C(=O)NCC4CNC(=O)C4)nc23)cc(C)n1` (stereo not drawn) [Example 92.26] are over 1000 nM, 5.8 nM, 22 nM and 175 nM.
With `Cc1cc(-c2c(-c3cccc(C#N)c3)nn3ccc(C(=O)NC[C@H]4CNC(=O)C4)nc23)cc(C)n1` [Example 92.27], the Ki in assay [1] is over 1000 nM; in assay [2] it was 6.6 nM; in assay [3], 16 nM; in assay [4] it was 210 nM.
As to `Cc1cc(-c2c(-c3cccc(C#N)c3)nn3ccc(C(=O)NC[C@@H]4CNC(=O)C4)nc23)cc(C)n1` [Example 92.28], the Ki in assay [1] was over 1000 nM; in assay [2], 3.2 nM; in assay [3], 64 nM; in assay [4], 345 nM.
For the molecule `Cc1cc(-c2c(-c3cccc(C#N)c3)nn3ccc(C(=O)N[C@H]4COC[C@@H]4O)nc23)cc(C)n1` [Example 92.29], the inhibition constant (Ki) in assay [1] is over 1000 nM; in assay [2] it was 1.9 nM; in assay [3], 34 nM; in assay [4], 412 nM.
`Cc1cc(-c2c(-c3cccc(C#N)c3)nn3ccc(C(=O)N[C@@H]4COC[C@@H]4O)nc23)cc(C)n1` [Example 92.30]: the Ki in assay [1] is over 1000 nM; in assay [2], 0.8 nM; in assay [3], 36 nM; in assay [4], 361 nM.
The corresponding values for `Cc1cc(-c2c(-c3cccc(C#N)c3)nn3ccc(C(=O)N[C@@H]4COC[C@H]4O)nc23)cc(C)n1` [Example 92.31] are over 1000 nM, 2.1 nM, 57 nM and 333 nM.
